Laboratory results as given in ChEMBL document CHEMBL5154942, “Discovery of Clinical Candidate NTQ1062 as a Potent and Bioavailable Akt Inhibitor for the Treatment of Human Tumors” (J Med Chem, 2022).

Columns and labels:
LNCaP = assay: Induction of cell cycle arrest in human LNCap cells assessed as accumulation at G0/G1 phase at 0.2 uM incubated for 24 hrs by flow cytometry (reference value: 58.60 %); format: functional
[1] = Apparent volume of distribution at steady state in Sprague-Dawley rat at 5 mg/kg, iv measured upto 24 hrs by UPLC-MS/MS analysis; format: ADME, organism-based; conditions: in vivo, read-out: Vdss(app)
[2] = molecular target: Protein kinase C theta type (Homo sapiens) (UniProt Q04759); assay: Inhibition of PKCtheta (unknown origin) at 1 uM in presence of ATP at Km concentration by mobility shift assay relative to control
Protein kinase C theta type (Homo sapiens), sequence (Q04759 whole entry, looked up): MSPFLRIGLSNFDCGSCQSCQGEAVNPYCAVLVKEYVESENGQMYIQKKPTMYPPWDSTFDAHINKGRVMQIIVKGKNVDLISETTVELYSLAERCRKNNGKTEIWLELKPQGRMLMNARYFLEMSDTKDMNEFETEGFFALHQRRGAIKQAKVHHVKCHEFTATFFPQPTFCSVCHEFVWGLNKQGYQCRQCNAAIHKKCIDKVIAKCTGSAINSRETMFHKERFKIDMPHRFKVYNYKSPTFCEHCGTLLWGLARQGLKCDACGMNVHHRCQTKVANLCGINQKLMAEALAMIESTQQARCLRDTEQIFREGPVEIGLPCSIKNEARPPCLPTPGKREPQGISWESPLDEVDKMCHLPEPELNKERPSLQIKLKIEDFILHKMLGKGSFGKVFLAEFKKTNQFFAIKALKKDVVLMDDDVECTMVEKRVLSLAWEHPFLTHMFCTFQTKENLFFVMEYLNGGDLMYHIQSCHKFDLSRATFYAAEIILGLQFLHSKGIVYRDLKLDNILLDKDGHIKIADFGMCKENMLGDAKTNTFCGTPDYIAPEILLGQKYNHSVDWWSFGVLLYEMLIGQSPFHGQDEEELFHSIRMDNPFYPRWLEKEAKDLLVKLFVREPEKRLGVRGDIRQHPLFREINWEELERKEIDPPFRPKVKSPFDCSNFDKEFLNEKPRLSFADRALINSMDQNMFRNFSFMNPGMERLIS

[3] = AUC (0 to infinity) in overnight fasted ICR mouse at 10 mg/kg, po measured upto 24 hrs by UPLC-MS/MS analysis; format: ADME, organism-based; design: dose 10 mg/kg, time < 24 hrs, route po; conditions: in vivo
[4] = AUC (0 to t) in crab-eating monkey at 3 mg/kg, iv measured upto 24 hrs by UPLC-MS/MS analysis; format: ADME, organism-based, Macaca fascicularis; design: dose 3 mg/kg, time < 24 hrs, route iv; conditions: cynomolgus monkey, in vivo
[5] = Metabolic stability in CD-1 mouse liver microsomes assessed as half life at 1 uM measured after 60 mins by LC-MS/MS analysis; format: ADME, Microsome
[6] = Metabolic stability in Sprague-Dawley rat liver microsomes assessed hepatic clearance at 1 uM measured after 60 mins by LC-MS/MS analysis; format: ADME, Microsome; conditions: 1 h
[7] = Half life in crab-eating monkey at 3 mg/kg, iv measured upto 24 hrs by UPLC-MS/MS analysis; format: ADME, organism-based, Macaca fascicularis; conditions: cynomolgus monkey, in vivo
[8] = Cmax in NCG mouse xenografted with human LNCaP cells at 12.5 mg/kg administered once daily for 18 to 21 days and measured upto 10 hrs post last dose by LC-MS/MS analysis; format: ADME, organism-based; conditions: in vivo
[9] = AUC (0 to infinity) in crab-eating monkey at 3 mg/kg, iv measured upto 24 hrs by UPLC-MS/MS analysis; format: ADME, organism-based, Macaca fascicularis; design: dose 3 mg/kg, time < 24 hrs, route iv; conditions: cynomolgus monkey, in vivo
[10] = Tmax in Sprague-Dawley rat at 10 mg/kg, ig by UPLC-MS/MS analysis; format: ADME, organism-based; conditions: in vivo, po, time < 24 hrs
[11] = Tmax in NCG mouse xenografted with human LNCaP cells at 25 mg/kg administered once daily for 18 to 21 days and measured upto 10 hrs post last dose by LC-MS/MS analysis; format: ADME, organism-based; conditions: in vivo, time 18-21 day

Vd [1]: 7.76 L/kg
inhibition [2]: 90%
AUC(0-inf) [3]: 2.17 µg·h/mL
AUC(0-t) at 24 h [4]: 1.78 µg·h/mL
half-life at 1 µM [5]: > 6.45 h
CLH [6]: < 0.732 L/h/kg
half-life [7]: 7.73 h
Cmax [8]: 0.963 µg/mL
AUC(0-inf) [9]: 1.89 µg·h/mL
Tmax [10]: 2 h
Tmax [11]: 4 h
Structure (SMILES): CC(C)NC[C@@H](C(=O)N1CCN(c2ncnc3c2[C@H](C)CC(=O)N3)[C@H]2C[C@H]21)c1ccc(Cl)cc1
Activity (LNCaP): 82.42%
